# Where two headings read alike, the source gives them in different places.
# Columns and labels:
# [1] = Drug aerosol from percussively ignited heat package: purity and recovered yield by HPLC; assay type: physicochemical
# [2] = 25° C.; cited from earlier work
smiles,measurement,setting,value
Cc1nnc2n1-c1ccc(Cl)cc1C(c1ccccc1)=NC2 [alprazolam],purity of the resultant aerosol,[1],96.8%
same,recovered yield of aerosol,[1],100%
CC(C)C(=O)OCC(=O)[C@@]12O[C@H](C3CCCCC3)O[C@@H]1C[C@H]1[C@@H]3CCC4=CC(=O)C=C[C@]4(C)[C@H]3[C@@H](O)C[C@@]12C [ciclesonide],purity of the resultant aerosol,"[1]; percussively ignited heat package, greater than 800° C., air flow 20 L/min, film 1.58 μm alprazolam, 6.33 μm pramipexole, 2.53 μm ciclesonide",85.6%
"CN1CCCC1c1cccnc1 (stereo not shown) [Nicotine, nicotine]",vapor pressure,[2],0.0425 mmHg

# Source: US20110253135A1, “METAL COORDINATION COMPLEXES OF VOLATILE DRUGS” (ALEXZA PHARMACEUTICALS, INC., priority 2008, published 2011)
